Test results from patent US11161876B2, “Anti-inflammatory nanofibers” (Northwestern University, priority 2015, dated 2021).
Entries after “also recorded” stand apart in the source; their conditions may differ. * marks the point of attachment. C16 alkyl = CCCCCCCCCCCCCCCC*

Key:
[1] = system: Rat Bladder Augmentation Model; assay: Blood vessel quantification in areas of bladder tissue regeneration; format: in vivo; details: means±SE
Procedure: (§1) Athymic female rats (weighing ˜200 g and 8-10 weeks old; National Cancer Institute Animal Production Program) underwent bladder augmentation (ref. 15; herein incorporated by reference in its entirety). Athymic rats were chosen for this study to solely examine the innate immune response to inflammation without influence of the adaptive immune response. In order to induce anesthesia, animals were given intraperitoneal injections of 60 mg/kg ketamine and 5 mg/kg xylazine. A second injection consisting of Buprenex (1 mg/kg) was administered subcutaneously to alleviate any pain/discomfort during and following surgical procedures. An approximate 1.5 cm midline vertical skin incision was created to expose the abdominal fascia and muscles. This was immediately followed by the separation of the wall leading to the identification of the bladder. An approximate 70% supratrigonal cystectomy was performed from anterior to posterior creating a clamshell. Immediately prior to bladder augmentation procedures, samples of the pro-inflammatory biological scaffold, small intestinal submucosa (SIS (0.5×0.5 cm); Cook Biotech.) (refs. 12,13,16; herein incorporated by reference in their entireties) were thoroughly dip-coated separately in one of the previously described AIF-PAs following gelation procedures. The sections of SIS were dip-coated for approximately 20 seconds and allowed to adhere to the SIS for an additional 30 seconds. Dip-coating procedures were performed at room temperature in air. The cystectomized bladder defect was then augmented with: 1) SIS (non-AIF-PA coated SIS; n=8 animals over both time-points); 2) AIF-PA1 coated SIS (denoted as SIS/AIF-PA1; n=11 animals over both time-points); 3) AIF-PA2 coated SIS (denoted as SIS/AIF-PA2; n=8 animals over both time-points); 4) AIF-PA3 coated SIS (denoted as SIS/AIF-PA3; n=3); 5) AIF-PA4 coated SIS (denoted as SIS/AIF-PA4; n=3 animals); 6) AIF-PA5 coated SIS (denoted as SIS/AIF-PA5; n=3 animals); and 7) AIFC-PA6 coated SIS (denoted as SIS/AIFC-PA6; n=9 animals over both time-points). The bladder was finally covered with omentum after being closed in a watertight manner utilizing 7-0 polyglactin suture. The abdominal wall was then closed in a single layer with 5-0 ethibond running suture and the skin re-approximated with 9 mm autoclips. Each group was sacrificed at 10 day and 5 week time-points.
Trichrome sample images were opened with Adobe Photoshop CS3 and were initially characterized utilizing a Nikon Eclipse 50i Microscope in addition to Spot Advanced Imaging Software. Vessel numbers were quantified utilizing the pen tool based upon n=10 images per graft in regenerated areas. Individual vessels were selected manually and subsequently quantified using the image histogram tool to acquire pixel density for each vessel. Data is represented as mean number of vessels/mm^2 (means±SE).

[2] = system: MPO+ neutrophils; assay: Immunofluorescence quantification of MPO+ neutrophils in regenerated bladder tissue; format: in vivo, rat
Procedure: as §1
(§2) Tissue sections comprised of SIS alone, SIS/AIF-PA1, SIS/AIF-PA2, and SIS/AIF-PA6 augmentations were subjected to immunofluorescence staining by initially undergoing antigen retrieval which consisted of 15 min of boiling in citrate buffer (0.01M citrate solution, pH 6.0 with 0.05% Tween-20) followed by cooling at room temperature for approximately 20 minutes. The antibody staining process consisted of a blocking step for 15 min in bovine serum albumin (BSA, 5 mg/ml) followed by a 40 minutes incubation at room temperature with the primary antibody. After washing with DPBS, slides were incubated for 30 min with a secondary antibody and eventually rinsed with DPBS and air dried. Slides were mounted with Vectashield (Vector Laboratories). Primary antibodies were directed against epitopes for the inflammatory markers CD68 (macrophage) (refs. 18,19; herein incorporated by reference in their entireties) MPO (neutrophil) (ref. 20; herein incorporated by reference in its entirety) or the inflammation-related proteins IL1β, TNFα, IL-10, IL-13, CD206 (M2 macrophage) (refs. 21-25; herein incorporated by reference in their entireties) and CD86 (M1 macrophage) (ref. 26; herein incorporated by reference in its entirety). Antibodies directed against the ECM in regenerating bladder tissue (including COL4A3 and fibronectin) were also utilized. Alexa Red 555 or FITC conjugated secondary antibodies (Molecular Probes) were utilized for visualization (ref. 15; herein incorporated by reference in its entirety). […]

[3] = system: Rat Bladder Augmentation Model; assay: Urodynamic testing (UDS) of augmented bladders; format: in vivo; details: for intravesical pressure during voiding: post-augmentation
Procedure: as §1
The bladders of anesthetized athymic rats were exposed through the abdomen as previously described. A 20 gauge cannula (Becton Dickinson and Co.) was delicately placed into the bladder through the dome in order to obtain intravesical measurements. The cannula was connected to the Pump 11 Elite Syringe Pump (Harvard Apparatus) and to a physiological pressure transducer (SP844, MEMSCAP). The pressure transducer was connected to a bridge amplifier (Model FE221; AD Instruments). Continuous reading of the transvesical pressure was measured and plotted using LabChart 7.3 software (AD Instruments). The fill rate for each study ranged from 150-200 uL per minute. Bladder capacity was measured by a modified protocol (ref. 13; herein incorporated by reference in its entirety). Sterile DPBS was injected into the bladder using a 27 gauge needle in 50 μl increments until fluid leakage was observed from the urethra of the animal. The total volume injected was then noted. This procedure was repeated at least three times per animal. Urine was evacuated from the bladder prior to the start of any bladder capacity measurements utilizing a sterile 27 gauge needle. Urodynamic and bladder capacity measurements were performed immediately prior to augmentation procedures and immediately prior to euthanization.
Bladders underwent urodynamic testing (UDS) pre- and post-augmentation. Bladders were gradually filled with sterile saline until a bladder contraction occurred. Bladder pressures rose during the filling until bladder contractions occurred at intravesical pressures of 30-40 cm H2O (FIG. 5, panels A, C, E, and G). […]

[4] = system: CD68+ macrophages; assay: Immunofluorescence quantification of CD68+ macrophages in regenerated bladder tissue; format: in vivo, rat
Procedure: as §1, §2

[5] = system: TNFα; assay: TNFα expression in regenerated bladder tissue (immunofluorescence); format: in vivo, rat; details: for Cytokine expression (shown as percentage of cells staining positive) Pro-inflammatory TNFα: 5 weeks post-augmentation, means ± SE; for percentage of cells staining positive for TNFα: 10 days post-augmentation
Procedure: as §1, §2

[6] = post-augmentation vs pre-augmentation

“C16-VVVAAAEEEHDMNKVLDL (SEQ ID NO:2) ({C16 alkyl}-VVVAAAEEEHDMNKVLDL-NH2) [SIS/AIF-PA2, anti-inflammatory peptide amphiphile, tested dip-coated on small intestinal submucosa (SIS) scaffold]” was tested, and the “number of vessels in regenerated tissue” value ([1]; 5W post-augmentation) was 96.7±4.4 vessels/mm^2, the “number of vessels in regenerated tissue” value ([1]; 10D post-augmentation) was 71.5±6.7 vessels/mm^2 and the “percentage of cells positive for MPO” value ([2]; 5 weeks post-augmentation) was 7.2±1.1%. For the same substance, the “percentage of cells positive for MPO” value ([2]; 10 days post-augmentation) was 9.0±0.5%, the “intravesical pressure during voiding” value [3] was “approximately 35 cm H2O” and the “intravesical / voiding pressures, in words” value [3, 6] was “very modest decrease in bladder intravesical pressure”. The “percentage of cells CD68+” value ([4]; 5 weeks post-augmentation) was 16.5±1.6%, the “percentage of cells CD68+” value ([4]; 10 days post-augmentation) was 23.1±3.3% and the “Cytokine expression (shown as percentage of cells staining positive) Pro-inflammatory TNFα” value [5] was 14.6 ± 1.7 percentage. For the same substance, the “percentage of cells staining positive for TNFα” value (from here on “percentage … for TNFα”) [5] was 26.3±2.5%.

For “C16-VVVAAAEEEKLMSQKMVD (SEQ ID NO:6) ({C16 alkyl}-VVVAAAEEEKLMSQKMVD-NH2) [SIS/AIFC-PA6, reference compound]”, the “number of vessels in regenerated tissue” value ([1]; 5W post-augmentation) was 53.3±4.4 vessels/mm^2, the “number of vessels in regenerated tissue” value ([1]; 10D post-augmentation) was 37.0±2.3 vessels/mm^2 and the “percentage of cells positive for MPO” value ([2]; 5 weeks post-augmentation) was 17.6±1.8%. For the same substance, the “intravesical / voiding pressures, in words” value [3, 6] was “unchanged or even slightly elevated; also recorded: failed to decrease intravesical pressures”, the “percentage of cells CD68+” value ([4]; 5 weeks post-augmentation) was 42.0±2.6% and the “Cytokine expression (shown as percentage of cells staining positive) Pro-inflammatory TNFα” value [5] was 42.8 ± 2.2 percentage. For the same substance, the “percentage … for TNFα” value [5] was 65.1±5.1%.

For “C16-VVVAAAEEEMQMKKVLDS (SEQ ID NO:1) ({C16 alkyl}-VVVAAAEEEMQMKKVLDS-NH2) [SIS/AIF-PA1, anti-inflammatory peptide amphiphile, tested dip-coated on small intestinal submucosa (SIS) scaffold]”, the “number of vessels in regenerated tissue” value ([1]; 5W post-augmentation) was 90.7±4.5 vessels/mm^2, the “number of vessels in regenerated tissue” value ([1]; 10D post-augmentation) was 71.0±1.5 vessels/mm^2 and the “percentage of cells positive for MPO” value ([2]; 5 weeks post-augmentation) was 5.2±0.7%. For the same substance, the “percentage of cells positive for MPO” value ([2]; 10 days post-augmentation) was 6.9±0.7%, the “intravesical pressure during voiding” value [3] was “approximately 25 cm H2O” and the “bladder compliance, in words” value [3, 6] was “higher bladder compliance; also recorded: increase in compliance”. For the same substance, the “intravesical / voiding pressures, in words” value [3, 6] was “decreased intravesical pressures”, the “percentage of cells CD68+” value ([4]; 5 weeks post-augmentation) was 17.6±1.8% and the “percentage of cells CD68+” value ([4]; 10 days post-augmentation) was 33.4±2.0%. The “Cytokine expression (shown as percentage of cells staining positive) Pro-inflammatory TNFα” value [5] was 17.4 ± 2.9 percentage and the “percentage … for TNFα” value [5] was 32.8±2.5%.
